As a reminder, the EC50 is the midpoint of the concentration-response curve.

SMILES strings stand for the structures. Counter-ions that a name gives are not always drawn.

For 47 compounds, EC50 results are on record in patent US8778923B2, “GLP-1 receptor modulators” (Receptos, Inc., priority 2011, dated 2014).

This assay deals with T1, GLP-1R (Homo sapiens, UniProt P43220).
T1 construct: host or cells: CRE-bla CHO-K1
Nature of the assay: EC20 GLP-1(9-36) PAM cAMP assay: dose response of compound in the presence of fixed concentration of GLP-1(9-36). The assay is classed as cell-based. Conditions: GLP-1R CRE-bla CHO-K1 cells, compound dose response in presence of fixed concentration of GLP-1(9-36). A digest of the protocol: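 GLP-1R CRE-bla CHO-K1 cells in HBSS/10 mM Hepes/0.1% BSA pH 7.4 with IBMX got a 12-point compound dose response plus fixed EC20 GLP-1(9-36), 30 min at 37 °C. cAMP measured by HitHunter luminescence against a standard curve; EC50 and Emax by non-linear regression.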
For orientation: Cyclic AMP is a second messenger, typically raised through Gs and lowered through Gi signalling.

T1 sequence (P43220 24-463): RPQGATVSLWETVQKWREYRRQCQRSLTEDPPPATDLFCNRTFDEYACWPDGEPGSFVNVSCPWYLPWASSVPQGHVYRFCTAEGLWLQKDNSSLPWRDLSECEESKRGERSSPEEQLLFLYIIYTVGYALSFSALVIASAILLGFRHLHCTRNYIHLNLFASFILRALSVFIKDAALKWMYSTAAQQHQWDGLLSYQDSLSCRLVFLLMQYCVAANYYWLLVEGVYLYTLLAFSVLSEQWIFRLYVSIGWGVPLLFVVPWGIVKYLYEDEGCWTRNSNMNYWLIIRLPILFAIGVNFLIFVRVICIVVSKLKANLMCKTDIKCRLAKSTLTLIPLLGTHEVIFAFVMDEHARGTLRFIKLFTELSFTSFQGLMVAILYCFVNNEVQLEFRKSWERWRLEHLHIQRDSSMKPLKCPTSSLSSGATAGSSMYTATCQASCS
T1 sequence (P01275 100-127 partner limits assumed): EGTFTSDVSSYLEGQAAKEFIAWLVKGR

As to `CCCCCCCn1nnnc1-c1cnc(-c2ccc(C[C@H](NC(=O)c3ccc(C(C)(C)C)cc3)C(=O)O)cc2)nc1` [Compound 255], the EC50 lay in the range of 5000 to 10000 nM.

As for `CCCCCCOC1=NCc2cc(-c3cnc(-c4ccc(C[C@H](NC(=O)c5ccc(C(C)(C)C)cc5)C(=O)O)cc4)nc3)ccc21` [Compound 256], the EC50 lay in the range of 5000 to 10000 nM.

As to `CCCCCCOc1ccc(-c2cnc(-c3ccc(C[C@H](NC(=O)c4ccc(C(C)(C)C)cc4)C(=O)O)cc3)nc2)cn1` [Compound 257], the EC50 was in the range of 800 to 2500 nM.

With `CC(C)(C)c1ccc(C(=O)N[C@@H](Cc2ccc(-c3ncc(OCc4ccccc4)cn3)cc2)C(=O)O)cc1` [Compound 258], the EC50 fell in the range of 5000 to 10000 nM.

`CCCCCCCCOc1ccc(-c2cnc(-c3ccc(C[C@H](NC(=O)c4ccc(C(C)(C)C)s4)C(=O)O)cc3)nc2)cc1` [Compound 259]: the EC50 fell in the range of 800 to 2500 nM.

`CCCCCCCCCOc1ccc(-c2cnc(-c3ccc(C[C@H](NC(=O)c4ccc(C(C)(C)C)s4)C(=O)O)cc3)nc2)cc1` [Compound 260]: the half-maximal effective concentration (EC50) is less than 800 nM.

For the compound `CCCCCCCOc1ccc(N2CCN(c3ccc(C[C@H](NC(=O)c4ccc(C(C)(C)C)cc4)C(=O)O)cc3)CC2=O)cc1` [Compound 261], the EC50 lay within 2500 to 5000 nM.

With `CCCCCCCOc1ccc(N2CCN(c3ccc(C[C@H](NC(=O)c4ccc(C(C)(C)C)s4)C(=O)O)cc3)C2=O)cc1` [Compound 262], the EC50 fell in the range of 2500 to 5000 nM.

`CCCCCCCOc1ccc(N2CCC(Nc3ccc(C[C@H](NC(=O)c4ccc(C(C)(C)C)cc4)C(=O)O)cc3)CC2)cc1` [Compound 263]: the EC50 was 800 to 2500 nM.

Regarding `CCCCCCCOc1ccc(C2CCN(c3ccc(C[C@H](NC(=O)c4ccc(C(C)(C)C)cc4)C(=O)O)cc3)CC2)cc1` [Compound 264], the EC50 was in the range of 800 to 2500 nM.

As for `CCCCCCCOc1ccc(C2CCN(c3ccc(C[C@H](NC(=O)c4ccc(C(C)(C)C)cc4)C(=O)O)cc3)C2)cc1` (some centres unmarked) [Compound 265], the EC50 fell in the range of 5000 to 10000 nM.

Regarding `CC(C)(C)c1ccc(C(=O)N[C@@H](Cc2ccc(N3CCN(c4ccc(-c5ccccc5)cc4)CC3)cc2)C(=O)O)cc1` [Compound 266], the EC50 was 5000 to 10000 nM.

With `CCCCCCCOc1ccc(N2CCN(c3ccc(C[C@H](NC(=O)c4ccc(C(C)(C)C)cc4)C(=O)O)cc3)CC2)cc1` [Compound 267], the EC50 lay within 800 to 2500 nM.

As for `CCCCCCCOc1ccc(N2CCCN(c3ccc(C[C@H](NC(=O)c4ccc(C(C)(C)C)cc4)C(=O)O)cc3)CC2)cc1` [Compound 268], the EC50 was in the range of 800 to 2500 nM.

Regarding `CCCCCCCOc1ccc(-c2ccc(-c3ccc(C[C@H](NC(=O)c4ccc(C(C)(C)C)cc4)C(=O)O)cc3)nc2)cc1` [Compound 269], the EC50 was in the range of 800 to 2500 nM.

Regarding `CCCCCCCOc1ccc(-c2ncc(-c3ccc(C[C@H](NC(=O)c4ccc(C(C)(C)C)cc4)C(=O)O)cc3)cn2)cc1` [Compound 271], the EC50 lay within 800 to 2500 nM.

`CCCCCCCOc1ccc(-c2cnc(-c3ccc(C[C@H](NC(=O)c4ccc(C(C)(C)C)cc4)C(=O)O)cc3)cn2)cc1` [Compound 272]: the EC50 was 800 to 2500 nM.

As to `CCCCCCCOc1ccc(-c2cnc(-c3ccc(C[C@H](NC(=O)c4ccc(C(C)(C)C)cc4)C(=O)O)cc3)nn2)cc1` [Compound 274], the EC50 was 800 to 2500 nM.

For `CCCCCCCOc1ccc(-c2cnc(-c3ccc(C[C@H](NC(=O)c4ccc(C(C)(C)C)cc4)C(=O)NCC(=O)O)cc3)nn2)cc1` [Compound 276], the EC50 fell in the range of 800 to 2500 nM.

As for `CCCCCCCOc1ccc(-c2ccc(-c3ccc(C[C@H](NC(=O)c4ccc(C(C)(C)C)s4)C(=O)O)cc3)nc2)cc1` [Compound 277], the EC50 is less than 800 nM.

As for `CC(C)(C)c1ccc(-c2ccc(-c3ccc(C[C@H](NC(=O)c4ccc(C(C)(C)C)s4)C(=O)O)cc3)nc2)cc1` [Compound 278], the EC50 is 2500 to 5000 nM.

As to `CCCCCCCOc1ccc(-c2ccc(-c3ccc(C[C@H](NC(=O)c4ccc(C(C)(C)C)s4)C(=O)O)cc3)nn2)cc1` [Compound 279], the EC50 was 5000 to 10000 nM.

Take `CC(C)(C)c1ccc(-c2ccc(-c3ccc(C[C@H](NC(=O)c4ccc(C(C)(C)C)s4)C(=O)O)cc3)nn2)cc1` [Compound 280]: the EC50 is 2500 to 5000 nM.

Turning to `CCCCCCCOc1ccc(-c2cnc(-c3ccc(C[C@H](NC(=O)c4ccc(C(C)(C)C)s4)C(=O)O)cc3)cn2)cc1` [Compound 281], the EC50 was less than 800 nM.

With `CC(C)(C)c1ccc(-c2cnc(-c3ccc(C[C@H](NC(=O)c4ccc(C(C)(C)C)s4)C(=O)O)cc3)cn2)cc1` [Compound 282], the EC50 is 800 to 2500 nM.

With `CCCCCCCOc1ccc(-c2ccc(-c3ccc(C[C@H](NC(=O)c4ccc(C(C)(C)C)s4)C(=O)NCC(=O)O)cc3)nn2)cc1` [Compound 283], the EC50 is 5000 to 10000 nM.

With `CCCCCCCOc1ccc(-c2cnc(-c3ccc(C[C@H](NC(=O)c4ccc(C(C)(C)C)s4)C(=O)NCC(=O)O)cc3)cn2)cc1` [Compound 284], the EC50 lay in the range of 800 to 2500 nM.

For `CCCCCCCOc1ccc(-c2ccc(-c3ccc(C[C@H](NC(=O)c4ccc(C(C)(C)C)s4)C(=O)NCC(=O)O)cc3)nc2)cc1` [Compound 285], the EC50 lay in the range of 800 to 2500 nM.

Consider `CCCCCCCOc1ccc(-c2c[nH]c(-c3ccc(C[C@H](NC(=O)c4ccc(C(C)(C)C)cc4)C(=O)O)cc3)n2)cc1` [Compound 286, (S)-2-(4-(tert-butyl)benzamido)-3-(4-(4-(4-(heptyloxy)phenyl)-1H-imidazol-2-yl)phenyl)propanoic acid hydrochloride], for which the EC50 lay in the range of 2500 to 5000 nM.

As for `CCCCCCCOc1ccc(-n2cnc(-c3ccc(C[C@H](NC(=O)c4ccc(C(C)(C)C)cc4)C(=O)O)cc3)c2)cc1` [Compound 287, (S)-2-(4-(tert-butyl)benzamido)-3-(4-(1-(4-(heptyloxy)phenyl)-1H-imidazol-4-yl)phenyl)propanoic acid], the EC50 was 5000 to 10000 nM.

Turning to `Cc1ccc(-c2ccc(-n3cc(-c4ccc(C[C@H](NC(=O)c5ccc(C(C)(C)C)cc5)C(=O)O)cc4)cn3)cc2)cc1` [Compound 288, (S)-2-(4-(tert-butyl)benzamido)-3-(4-(1-(4′-methyl-[1,1′-biphenyl]-4-yl)-1H-pyrazol-4-yl)phenyl)propanoic acid], the EC50 lay within 2500 to 5000 nM.

`CCCCCCCOc1ccc(-c2cnc(-c3ccc(C[C@@H](CC(=O)O)NC(=O)c4ccc(C(C)(C)C)cc4)cc3)nc2)cc1` [Compound 291, (S)-3-(4-(tert-butyl)benzamido)-4-(4-(5-(4-(heptyloxy)phenyl)pyrimidin-2-yl)phenyl)butanoic acid]: the EC50 lay in the range of 800 to 2500 nM.

For `CCCCCCCOc1ccc(-c2cnc(-c3ccc(C[C@H](NC(=O)c4ccc(C(C)(C)C)cc4)C(=O)O)cc3)nc2OC)cc1` [Compound 292, (S)-2-(4-(tert-butyl)benzamido)-3-(4-(5-(4-(heptyloxy)phenyl)-4-methoxypyrimidin-2-yl)phenyl)propanoic acid], the EC50 lay within 800 to 2500 nM.

Take `CCCCCCCOc1ccc(-c2cnc(-c3ccc(C[C@H](NC(=O)c4ccc(C(C)(C)C)cc4)C(=O)O)cc3)nc2N(C)C)cc1` [Compound 293]: the EC50 fell in the range of 2500 to 5000 nM.

Consider `CCCCCCCOc1ccc(-c2cnc(-c3ccc(C[C@H](NC(=O)c4ccc(C(C)(C)C)cc4)C(=O)O)cc3)cc2C)cc1` [Compound 294], for which the EC50 was in the range of 800 to 2500 nM.

On to `CCCCCCCOc1ccc(-c2cnc(-c3ccc(C[C@H](NC(=O)c4ccc(C(C)(C)C)cc4)C(=O)O)cc3)cc2C(F)(F)F)cc1` [Compound 295], for which the EC50 is 800 to 2500 nM.

As to `CCCCCCCOc1ccc(-c2cnc(-c3ccc(C[C@H](NC(=O)c4coc(C(C)(C)C)n4)C(=O)O)cc3)nc2)cc1` [Compound 296], the EC50 is 800 to 2500 nM.

As to `CCCCCCCOc1ccc(-c2cnc(-c3ccc(C[C@H](NC(=O)c4ccc(C(C)(C)C)cc4)C(=O)NCC(=O)O)cc3)nc2)cc1` [Compound 297, (S)-(2-(4-(tert-butyl)benzamido)-3-(4-(5-(4-(heptyloxy)phenyl)pyrimidin-2-yl)phenyl)propanoyl)glycine], the EC50 was less than 800 nM.

`CCCCCCCOc1ccc(-c2cnc(-c3ccc(C[C@H](NC(=O)c4ccc(C(C)(C)C)cc4)C(=O)NCCC(=O)O)cc3)nc2)cc1` [Compound 298, (S)-3-(2-(4-(tert-butyl)benzamido)-3-(4-(5-(4-(heptyloxy)phenyl)pyrimidin-2-yl)phenyl)propanamido)propanoic acid]: the EC50 is less than 800 nM.

As for `CCCCCCCOc1ccc(-c2cnc(-c3ccc(C[C@H](NC(=O)c4ccc(C(C)(C)C)cc4)C(=O)NS(C)(=O)=O)cc3)nc2)cc1` [Compound 299, (S)-4-(tert-butyl)-N-(3-(4 (5 (4 (heptyloxy)phenyl)pyrimidin-2-yl)phenyl)-1-(methylsulfonamido)-1-oxopropan-2-yl)benzamide], the EC50 is less than 800 nM.

On to `CCCCCCCOc1ccc(-c2cnc(-c3ccc(C[C@H](NC(=O)c4ccc(C(C)(C)C)cc4)C(=O)N[C@@H](CC(N)=O)C(=O)O)cc3)nc2)cc1` [Compound 300], for which the EC50 was less than 800 nM.

With `CCCCCCCOc1ccc(-c2cnc(-c3ccc(C[C@H](NC(=O)c4ccc(C(C)(C)C)cc4)C(=O)NCCCC(=O)O)cc3)nc2)cc1` [Compound 301], the EC50 was 800 to 2500 nM.

As to `CCCCCCCOc1ccc(-c2cnc(-c3ccc(C[C@H](NC(=O)c4ccc(C(C)(C)C)cc4)C(=O)N(C)CCC(=O)O)cc3)nc2)cc1` [Compound 302], the EC50 fell in the range of 2500 to 5000 nM.

For `CCCCCCCOc1ccc(-c2cnc(-c3ccc(C[C@H](NC(=O)c4ccc(C(C)(C)C)cc4)C(=O)NCC(=O)Nc4nn[nH]n4)cc3)nc2)cc1` [Compound 303], the EC50 fell in the range of 800 to 2500 nM.

With `CCCCCCCOc1ccc(-c2cnc(-c3ccc(C[C@H](NC(=O)c4ccc(C(C)(C)C)cc4)C(=O)N(C)CC(=O)O)cc3)nc2)cc1` [Compound 304], the EC50 fell in the range of 800 to 2500 nM.

Take `CCCCCCCOc1ccc(-c2cnc(-c3ccc(C[C@H](NC(=O)c4ccc(C(C)C)cc4)C(=O)N[C@@H](C)C(=O)O)cc3)nc2)cc1` [Compound 305]: the EC50 is 800 to 2500 nM.

Regarding `CCCCCCCOc1ccc(-c2cnc(-c3ccc(C[C@H](NC(=O)c4ccc(C(C)C)cc4)C(=O)N[C@@H](CC(N)=O)C(=O)O)cc3)nc2)cc1` [Compound 306], the EC50 is less than 800 nM.
